Reference: publication PMC11855827, “High-Throughput Screening of Five Compound Libraries for Anthelmintic Activity and Toxicity Leads to the Discovery of Two Flavonoid Compounds” (International Journal of Molecular Sciences, 2025)
Counter-ions that a name gives are not always drawn. Like-named read-outs stand apart in the source and are kept apart here.

Assays:
[1] = test system: C. elegans; experiment: microbe, parasite or virus in culture; settings: Caenorhabditis elegans
[2] = test system: C. elegans; settings: Table S2, C. elegans SS assay, 110 μM, averages of 4 data points
[3] = 0 h, read-out: Percentage of motility inhibition 0 h, Table S2, C. elegans SS assay, 110 μM, 0 h, averages of 4 data points
[4] = 24 h, read-out: Percentage of motility inhibition 24 h, Table S2, C. elegans SS assay, 110 μM, 24 h, averages of 4 data points
[5] = 0 h, read-out: Percentage of motility inhibition 0 h
[6] = 24 h, read-out: Percentage of motility inhibition 24 h

Row | Compound | inhibition at 110 µM [1, 3] [%] | inhibition at 110 µM [1, 4] [%] | further results
1 | C[C@@H]1CCO[C@H]2Cn3cc(C(=O)NCc4ccc(F)cc4F)c(=O)c(O)c3C(=O)N12 [Dolutegravir] | 25 | 3 | 
2 | C[C@H](C[C@H](O)[C@@H](O)C(C)(C)O)C1=C2C[C@H](O)[C@H]3[C@@]4(C)CCC(=O)C(C)(C)[C@@H]4CC[C@]3(C)[C@@]2(C)CC1 [Alisol A] | 3 | 2 | 
3 | CCN1C[C@]2(COC)CC[C@H](OC)[C@]34C1[C@H]([C@H](OC)[C@H]23)[C@@]1(OC(C)=O)C[C@H](OC)[C@@]2(O)C[C@@H]4[C@@H]1[C@H]2OC(=O)c1ccc(OC)cc1 [Crassicauline A] | 0 | 0 | 
4 | Cc1cc(-n2c(=O)[nH]c(=O)n(C)c2=O)ccc1Oc1ccc(SC(F)(F)F)cc1 [Toltrazuril] | 31 | 2 | 
5 | CC1(C)C[C@H]2C3=CC[C@@H]4[C@@]5(C)CC[C@H](O)[C@](C)(CO)[C@@H]5CC[C@@]4(C)[C@]3(C)CC[C@@]2(C)[C@H](O)[C@@H]1O [Soyasapogenol A] | 5 | 3 | 
6 | C[C@@H]1CC[C@H]2C(C)(C)[C@H]3C[C@@]12CC[C@@]3(C)O [Cedrol] | 8 | 13 | 
7 | C[C@H]1[C@H](C)CC[C@]2(CO)CC[C@]3(C)C(=CC[C@@H]4[C@@]5(C)CC[C@H](O)C(C)(C)[C@@H]5CC[C@]43C)[C@H]12 [Uvaol] | 19 | 2 | 
8 | C[C@@H]1CC[C@]2(C(=O)O[C@@H]3O[C@H](CO)[C@@H](O)[C@H](O)[C@H]3O)CC[C@]3(C)C(=CC[C@@H]4[C@@]5(C)CC[C@H](O)[C@@](C)(CO)[C@@H]5CC[C@]43C)[C@@H]2[C@]1(C)O [Pedunculoside] | 14 | 13 | 
9 | CC(C)=CCC[C@](C)(O[C@@H]1O[C@H](CO)[C@@H](O)[C@H](O)[C@H]1O)[C@H]1CC[C@]2(C)[C@@H]1[C@H](O)C[C@@H]1[C@@]3(C)CC[C@H](O)C(C)(C)[C@@H]3[C@@H](O[C@@H]3O[C@H](CO)[C@@H](O)[C@H](O)[C@H]3O)C[C@]12C [Ginsenoside Rg1] | 0 | 0 | 
10 | CC[C@@H]([C@H](C)O)n1ncn(-c2ccc(N3CCN(c4ccc(OC[C@@H]5CO[C@@](Cn6cncn6)(c6ccc(F)cc6F)C5)cc4)CC3)cc2)c1=O [Posaconazole] | 23 | 0 | 
11 | NC(=O)c1cnccn1 [Pyrazinamide] | 4 | 13 | 
12 | O=C(O)C1=CCCNC1 [Guvacine hydrochloride] | 0 | 0 | 
13 | C=C[C@H]1CN2CC[C@@]3(C(=O)Nc4ccccc43)[C@@H]2C[C@@H]1/C(=C\OC)C(=O)OC [Isocorynoxeine] | 0 | 0 | 
14 | COc1cc2cc(c1Cl)N(C)C(=O)CC(O)C1(C)OC1C(C)C1CC(O)(NC(=O)O1)C(OC)/C=C/C=C(\C)C2 (stereo not shown) [Maytansinol] | 0 | 0 | 
15 | COC(=O)C1=CO[C@@H](O[C@@H]2O[C@H](CO)[C@@H](O)[C@H](O)[C@H]2O)[C@@H]2[C@@H](C)[C@@H](O)C[C@H]12 [Loganin] | 11 | 15 | 
16 | CC[C@@]1(O)C(=O)OCc2c1cc1n(c2=O)Cc2cc3c(N)cccc3nc2-1 [9‐Aminocamptothecin] | 0 | 2 | 
17 | O=C1C=CC[C@@H]2[C@H]3CCCN4CCC[C@@H](CN12)[C@@H]34 [Sophocarpine] | 11 | 9 | 
18 | Cn1c(=O)c2c(ncn2CC(=O)O)n(C)c1=O [Acefylline] | 0 | 1 | 
19 | O=C1C=C2C=C[C@@H]3C[C@@]2(O1)[C@H]1CCCCN31 [(‐)‐Securinine] | 0 | 12 | 

Row | Compound | inhibition at 110 µM [1, 3] [%] | inhibition at 110 µM [1, 4] [%] | further results
20 | CCCCC(C#N)(Cn1cncn1)c1ccc(Cl)cc1 (stereo not shown) [Myclobutanil] | 30 | 12 | 
21 | CN1Cc2c(ccc3c2OCO3)[C@@H]2[C@H]1c1cc3c(cc1C[C@@H]2O)OCO3 [Chelidonine] | 0 | 0 | 
22 | C[C@@H]1CC[C@@]2(NC1)O[C@H]1C[C@H]3[C@@H]4CC=C5C[C@@H](O)CC[C@]5(C)[C@H]4CC[C@]3(C)[C@H]1[C@@H]2C [Solasodine] | 12 | 20 | 
23 | Cc1oc(=O)oc1CN1CCN(c2cc3c(cc2F)c(=O)c(C(=O)O)c2n3C(C)S2)CC1 (stereo not shown) [Prulifloxacin] | 27 | 0 | 
24 | C=C1C(=O)O[C@@]23[C@H]1CC[C@@H](C)[C@@H]2CC[C@@]1(C)O[C@@H]31 [Arteannuin B] | 13 | 11 | 
25 | C=C1CC[C@@H]2[C@](C)(CO)[C@H](O)CC[C@@]2(C)[C@@H]1CCC1=CCOC1=O [14-Deoxyandrographolide] | 1 | 28 | 
26 | CC(=O)OC(C)(C)C1CC=C(C)CC1 (stereo not drawn) [α-Terpinyl acetate] | 18 | 28 | 
27 | COc1ccc2c(c1)[nH]c1c(C)nccc12 [Harmine] |  |  | inhibition at 110 µM [1, 5]: 36%; inhibition at 110 µM [1, 6]: 4%
28 | COc1cc(O)c2c(=O)cc(-c3ccc(O)c(OC)c3)oc2c1 [Velutin] | 11 | 19 | 
29 | C=C(C)[C@H](CC=C(C)C)Cc1c(O)cc(O)c2c1O[C@H](c1ccccc1O)CC2=O [Kushenol A] | 14 | 10 | 
30 | C=C(CC[C@@H](C(=O)O)[C@H]1[C@H](O)C[C@@]2(C)C3=CC[C@@H](C(=C)C)[C@](C)(CCC(=O)O)C3=CC[C@]12C)C(C)C [Poricoic acid A] |  |  | inhibition at 110 µM [1, 5]: 2%; inhibition at 110 µM [1, 6]: 8%
31 | C=C1C(=O)O[C@@H]2C[C@@]3(C)CCCC(=C)[C@@H]3C[C@H]12 [Isoalantolactone] | 2 | 12 | 
32 | CC(C)(C)C(=O)OCOP(=O)(COCCn1cnc2c(N)ncnc21)OCOC(=O)C(C)(C)C [Adefovir dipivoxil] | 28 | 14 | 
33 | Cc1oc(=O)oc1COC(=O)C1=C([C@H]2CCCO2)S[C@@H]2[C@@H]([C@@H](C)O)C(=O)N12 [Faropenem daloxate] | 5 | 17 | 
34 | CCCc1cc(C(N)=S)ccn1 [Prothionamide] | 44 | 7 | 
35 | CN1[C@@H]2CC[C@H]1CC(OC(=O)[C@H](CO)c1ccccc1)C2.CN1[C@@H]2CC[C@H]1CC(OC(=O)[C@H](CO)c1ccccc1)C2.O=S(=O)(O)O (stereo partly drawn) [L-Hyoscyamine (sulfate)] |  |  | Percentage of motility inhibition 0 h [2]: 1%; Percentage of motility inhibition 24 h [2]: 6%
36 | CC[C@@]1(O)C(=O)OCc2c1cc1n(c2=O)Cc2cc3c(CN(C)C)c(O)ccc3nc2-1.Cl [Topotecan (hydrochloride)] |  |  | Percentage of motility inhibition 0 h [2]: 19%; Percentage of motility inhibition 24 h [2]: 6%
37 | CC/C=C\C/C=C\C/C=C\CCCCCCCC(=O)NCc1ccccc1 [N‐Benzyllinolenamide] |  |  | Percentage of motility inhibition 0 h [2]: 2%; Percentage of motility inhibition 24 h [2]: 0%
38 | CC(C)OC(=O)[C@H](C)N[P@](=O)(CO[C@H](C)Cn1cnc2c(N)ncnc21)Oc1ccccc1.O=C(O)/C=C/C(=O)O [GS‐7340 (fumarate)] |  |  | Percentage of motility inhibition 0 h [2]: 20%; Percentage of motility inhibition 24 h [2]: 8%
